According to patent US20030224978A1, “Compounds and methods for modulating apoptosis” (McGill University, priority 1996, published 2003):
Entries after “also recorded” stand apart in the source; their conditions may differ. Positions of bridges follow the written chain, without caps; N, C: chain ends. Residues, ends and D or L forms follow the SMILES beside them.

Tests used:
[1] = in vitro; assay type: cell-based; conditions: human
Outline: (§1)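 Cytotoxicity assessed by MTT assay and proliferation by ³H-thymidine incorporation, with peptides tested at concentrations up to 100 μM.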

[2] = in vitro; assay type: cell-based; conditions: human; remark: listed apart in the source
Outline: as §1

[3] = in vitro; assay type: cell-based; conditions: human; remark: listed apart in the source
Outline: as §1

[4] = system: angiogenesis in chick embryonic chorioallantoic membranes; assay: Chick chorioallantoic membrane angiogenesis assay; assay type: in vivo; conditions: for inhibition of angiogenesis, in words: 3, 17, and 33 μg/mesh; for percent inhibition of angiogenesis: 24 hours
Procedure: The chick chorioallantoic membrane assay was used to assess the effects of cyclic peptides on angiogenesis (Iruela-Arispe et al., Molecular Biology of the Cell 6:327-343, 1995). Cyclic peptides were embedded in a mesh composed of vitrogen at concentrations of 3, 17, and 33 μg/mesh. The meshes were then applied to 12-day-old chick embryonic chorioallantoic membranes. After 24 hours, the effects of the peptides on angiogenesis were assessed by computer assisted morphometric analysis.
For each concentration of cyclic peptide, the percent inhibition of angiogenesis (relative to the level of angiogenesis in the absence of cyclic peptide) is provided. Assays were performed in the presence (+) or absence (−) of […] VEGF. For example, the cyclic peptide N-Ac-CHAVC-NH2 (SEQ ID NO:10) inhibited angiogenesis by 46%, 51%, and 51% at concentrations of 3, 17, and 33 μg/mesh, respectively.

[5] = system: bovine pulmonary artery endothelial cells; assay: Disruption of bovine endothelial cell adhesion; assay type: cell-based; conditions: 500 μg/ml, 30 minutes
Procedure: For use within one such assay, bovine pulmonary artery endothelial cells may be harvested by sterile ablation and digestion in 0.1% collagenase (type II; Worthington Enzymes, Freehold, N.J.). Cells may be maintained in Dulbecco's minimum essential medium supplemented with 10% fetal calf serum and 1% antibiotic-antimycotic at 37° C. in 7% CO2 in air. Cultures may be passaged weekly in trypsin-EDTA and seeded onto tissue culture plastic at 20,000 cells/cm^2. Endothelial cultures may be used at 1 week in culture, which is approximately 3 days after culture confluency is established. The cells may be seeded onto coverslips and treated (e.g., for 30 minutes) with modulating agent or a control compound at, for example, 500 μg/ml and then fixed with 1% paraformaldehyde. As noted above, disruption of cell adhesion may be determined visually within 24 hours, by observing retraction of the cells from one another. This assay evaluates the effect of a modulating agent on N-cadherin mediated cell adhesion.
Bovine pulmonary artery endothelial cells were harvested by sterile ablation and digestion in 0.1% collagenase (type II; Worthington Enzymes, Freehold, N.J.). Cells were maintained in Dulbecco's […] essential medium (Clonetics, San Diego, Calif.) supplemented with 10% fetal calf serum (Atlantic Biologicals, Nor cross, Ga.) and 1% antibiotic-antimycotic at 37° C. in 7% CO2 in air. Cultures were passaged weekly in trypsin-EDTA (Gibco, Grand Island, N.Y.) and seeded onto tissue culture plastic at 20,000 cells/cm^2 for all experiments. Endothelial cultures were used at 1 week in culture, which is approximately 3 days after culture confluency was established. The cells used in all protocols were between 4th passage and 10th passage. The cells were seeded onto coverslips and treated 30 minutes with N-Ac-CHAVC-NH2 (SEQ ID NO:10) or N-Ac-CHGVC-NH2 (SEQ ID NO:20) at 500 μg/ml and then fixed with 1% paraformaldehyde.

[6] = system: SKOV3 cells; assay: Disruption of human ovarian cancer cell (SKOV3) adhesion; assay type: cell-based; conditions: for activity on SKOV3 cell adhesion: 0.01-1 mg/mL, up to 48 hours; for effect on SKOV3 cell adhesion: final concentration of 1 mg/mL media, within 24 hours
Description: Within one representative cell adhesion assay, the addition of a modulating agent to cells that express a cadherin results in disruption of cell adhesion. A “cadherin-expressing cell,” as used herein, may be any type of cell that expresses at least one cadherin on the cell surface at a detectable level, using standard techniques such as immunocytochemical protocols (Blaschuk and Farookhi, Dev. Biol. 136:564-567, 1989). Cadherin-expressing cells include endothelial (e.g., bovine pulmonary artery endothelial cells), epithelial and/or cancer cells (e.g., the human ovarian cancer cell line SKOV3 (ATCC #HTB-77)). For example, such cells may be plated under standard conditions that permit cell adhesion in the presence and absence of modulating agent (e.g., 500 μg/mL). Disruption of cell adhesion may be determined visually within 24 hours, by observing retraction of the cells from one another.
The human ovarian cancer cell line SKOV3 (ATCC #HTB-77) expresses N-cadherin. SKOV3 cells were cultured in a modified MEM-based media containing 10% FCS. Cells were grown in T-250 culture flasks and maintained by periodic subculturing. Cyclic peptides were tested on cells grown in individual wells of 96-well culture dishes (surface area of each well was 0.32 cm^2). Cells were harvested from flasks and seeded at a density of 50,000 cells per well in 0.1 mL media containing the cyclic peptides at concentrations of 1, 0.1, or 0.01 mg/mL, or in the absence of cyclic peptide. Media control wells were also established. Cultures were evaluated periodically by microscopic examination under both bright field and phase contrast conditions. Cultures were maintained for 48 hours.

[7] = in vitro; assay type: cell-based; conditions: human; remark: listed apart in the source
Outline: as §1

Row | IC50 [1] [µM] | IC50 [2] [µM] | IC50 [3] [µM] | IC50 [7] [µM] | Compound | inhibition of angiogenesis, in words [4] | effect on endothelial cell monolayer / morphology [5] | activity on SKOV3 cell adhesion [6] | effect on SKOV3 cell adhesion [6] | SKOV3 cell morphology ([6]; 0.5 mg/ml, 24 hours) | SKOV3 cell morphology ([6]; 0.5 or 1 mg/ml, 24-48 hours) | percent inhibition of angiogenesis ([4]; 3 μg/mesh, absence (−) of 0.01 mM VEGF) [%] | percent inhibition of angiogenesis ([4]; 3 μg/mesh, presence (+) of 0.01 mM VEGF) [%] | percent inhibition of angiogenesis ([4]; 17 μg/mesh, absence (−) of 0.01 mM VEGF) [%] | percent inhibition of angiogenesis ([4]; 17 μg/mesh, presence (+) of 0.01 mM VEGF) [%] | percent inhibition of angiogenesis ([4]; 33 μg/mesh, absence (−) of 0.01 mM VEGF) [%] | percent inhibition of angiogenesis ([4]; 33 μg/mesh, presence (+) of 0.01 mM VEGF) [%]
1 | > 100 | > 100 | > 100 | > 100 | CC(=O)N[C@H]1CSSC[C@@H](C(N)=O)NC(=O)[C@H](CO)NC(=O)[C@H](C(C)C)NC(=O)[C@H](C)NC(=O)[C@H](Cc2c[nH]cn2)NC1=O [N-Ac-CHAVSC-NH2, N-Ac-Cys-His-Ala-Val-Ser-Cys-NH2] (Ac-CHAVSC-NH2; disulfide 1-6) | relatively inactive | had no effect on endothelial cell morphology | – | – | – | – | 11 | 17 | 12 | 16 | 17 | 19
2 | > 100 | > 100 | > 100 | > 100 | CC(=O)N[C@H]1CSSC[C@@H](C(N)=O)NC(=O)[C@H](CC(=O)O)NC(=O)[C@H](C(C)C)NC(=O)[C@H](C)NC(=O)[C@H](Cc2c[nH]cn2)NC(=O)[C@H](C)NC1=O [N-Ac-CAHAVDC-NH2, N-Ac-Cys-Ala-His-Ala-Val-Asp-Cys-NH2] (Ac-CAHAVDC-NH2; disulfide 1-7) | inhibited angiogenesis significantly | had a slight effect; also recorded: retracted from one another | inactive | – | – | – | – | – | – | – | – | –

The remaining lines, values behind:

Row | Compound | IC50 [1] [µM] | IC50 [2] [µM] | IC50 [3] [µM] | IC50 [7] [µM] | inhibition of angiogenesis, in words [4] | effect on endothelial cell monolayer / morphology [5] | activity on SKOV3 cell adhesion [6] | effect on SKOV3 cell adhesion [6] | SKOV3 cell morphology ([6]; 0.5 mg/ml, 24 hours) | SKOV3 cell morphology ([6]; 0.5 or 1 mg/ml, 24-48 hours) | percent inhibition of angiogenesis ([4]; 3 μg/mesh, absence (−) of 0.01 mM VEGF) [%] | percent inhibition of angiogenesis ([4]; 3 μg/mesh, presence (+) of 0.01 mM VEGF) [%] | percent inhibition of angiogenesis ([4]; 17 μg/mesh, absence (−) of 0.01 mM VEGF) [%] | percent inhibition of angiogenesis ([4]; 17 μg/mesh, presence (+) of 0.01 mM VEGF) [%] | percent inhibition of angiogenesis ([4]; 33 μg/mesh, absence (−) of 0.01 mM VEGF) [%] | percent inhibition of angiogenesis ([4]; 33 μg/mesh, presence (+) of 0.01 mM VEGF) [%]
3 | CC[C@H](C)[C@@H]1NC(=O)[C@H](CC(=O)O)NC(=O)[C@H](C(C)C)NC(=O)[C@H](C)NC(=O)[C@H](Cc2c[nH]cn2)NC(=O)[C@H](C)NC(=O)[C@@H](NC(C)=O)CSSC[C@@H](C(N)=O)NC1=O (Ac-CAHAVDIC-NH2; disulfide 1-8) | > 100 | > 100 | > 100 | > 100 | inhibited angiogenesis significantly | had no effect on endothelial cell morphology; also recorded: neither of the cyclic peptides show activity | inactive | – | – | – | – | – | – | – | – | –
4 | CC(=O)N[C@H]1CSSC[C@@H](C(N)=O)NC(=O)[C@H](C(C)C)NC(=O)CNC(=O)[C@H](Cc2c[nH]cn2)NC1=O [N-Ac-CHGVC-NH2, reference compound] | – | – | – | – | – | inactive | – | had no affect on cell adhesion | – | – | – | – | – | – | – | –
5 | CC(=O)N[C@H]1CSSC[C@@H](C(N)=O)NC(=O)[C@H](C(C)C)NC(=O)[C@H](C)NC(=O)[C@H](Cc2c[nH]cn2)NC1=O [N-Ac-CHAVC-NH2, N-Ac-Cys-His-Ala-Val-Cys-NH2] | – | – | – | – | – | disrupted the endothelial cell monolayer; also recorded: retracted from one another | – | disrupted SKOV3 cell adhesion | round-up | retract from one another and round-up | – | – | – | – | – | –
